{"source": "paper PMC10331583", "about": "“Control of fibrosis with enhanced safety via asymmetric inhibition of prolyl‐tRNA synthetase 1” (EMBO Molecular Medicine, 2023)", "key": {"[1]": {"system": "WI‐26 VA4 cells", "assay": "Collagen ELISA (secreted pro‐collagen I)"}, "[2]": {"assay": "CellTiter‐Glo assay (cytotoxicity)", "conditions": "human, WI-26 VA4 cells"}, "[3]": {"system": "WI‐26 VA4 cells", "assay": "CellTiter‐Glo assay (cytotoxicity)", "conditions": "for activity at 0.0001 µM / activity at 0.0003 µM / activity at 0.001 µM / activity at 0.003 µM / activity at 0.01 µM / activity at 0.03 µM / activity at 0.1 µM / activity at 0.3 µM / activity at 1 µM / activity at 3 µM / activity at 10 µM / activity at 30 µM / activity at 100 µM: Homo sapiens"}, "[4]": {"system": "TNT Quick Coupled Transcription/Translation System (luciferase synthesis)", "type": "biochemical"}, "[5]": {"conditions": "log(inhibitor) vs. response, variable slope (four parameters), concentration in nM"}}, "note": "“And” between values parts separate entries of the source, which are not always exact repeats. Equal entries are not always repeated. Where two headings read alike, the source gives them in different places.", "data": [{"smiles": "Cc1c(Br)cnc2c1ncn2CC(=O)C[C@H]1NCCC[C@@H]1O", "note": "[DWN11761]", "values": [{"measurement": "Collagen, % of control (single replicates per experiment)", "setting": "[1]; 1 nM, 0.001 µM", "value": "99.09 % of control and 89.14 % of control and 102.78 % of control and 94.15 % of control and 107.84 % of control"}, {"measurement": "Collagen, % of control (single replicates per experiment)", "setting": "[1]; 3 nM, 0.003 µM", "value": "120.43 % of control and 98.90 % of control and 84.42 % of control and 95.43 % of control and 97.10 % of control and 104.96 % of control"}, {"measurement": "Collagen, % of control (single replicates per experiment)", "setting": "[1]; 30 nM, 0.03 µM", "value": "79.96 % of control and 82.37 % of control"}, {"measurement": "CC50/collagen IC50", "setting": "[1]; Fig 5E", "value": 5.47}, {"measurement": "IC50", "setting": "[1]; Homo sapiens, WI26VA4, read-out: Collagen IC50 (best-fit value), log(inhibitor) vs. response, variable slope (four parameters) (converted)", "value": 0.0537, "unit": "µM"}, {"measurement": "activity at 0.001 µM", "setting": "[1]; Homo sapiens, WI26VA4, read-out: Collagen, % of control (single replicates per experiment), 1 nM", "value": 109, "unit": "%"}, {"measurement": "activity at 0.1 µM", "setting": "[1]; Homo sapiens, WI26VA4, read-out: Collagen, % of control (single replicates per experiment), 100 nM", "value": 20.2, "unit": "%"}, {"measurement": "activity at 0.3 µM", "setting": "[1]; Homo sapiens, WI26VA4, read-out: Collagen, % of control (single replicates per experiment), 300 nM", "value": 3.63, "unit": "%"}, {"measurement": "activity at 0.001 µM", "setting": "[1]; Homo sapiens, WI26VA4, read-out: Collagen, % of control, average, 1 nM, average", "value": 100, "unit": "%"}, {"measurement": "activity at 0.003 µM", "setting": "[1]; Homo sapiens, WI26VA4, read-out: Collagen, % of control, average, 3 nM, average", "value": 100, "unit": "%"}, {"measurement": "activity at 0.01 µM", "setting": "[1]; Homo sapiens, WI26VA4, read-out: Collagen, % of control, average, 10 nM, average", "value": 101, "unit": "%"}, {"measurement": "activity at 0.03 µM", "setting": "[1]; Homo sapiens, WI26VA4, read-out: Collagen, % of control, average, 30 nM, average", "value": 80.4, "unit": "%"}, {"measurement": "activity at 0.1 µM", "setting": "[1]; Homo sapiens, WI26VA4, read-out: Collagen, % of control, average, 100 nM, average", "value": 20.6, "unit": "%"}, {"measurement": "activity at 0.3 µM", "setting": "[1]; Homo sapiens, WI26VA4, read-out: Collagen, % of control, average, 300 nM, average", "value": 3.18, "unit": "%"}, {"measurement": "activity at 1 µM", "setting": "[1]; Homo sapiens, WI26VA4, read-out: Collagen, % of control, average, 1000 nM, average", "value": 1.53, "unit": "%"}, {"measurement": "activity at 3 µM", "setting": "[1]; Homo sapiens, WI26VA4, read-out: Collagen, % of control, average, 3000 nM, average", "value": 1.46, "unit": "%"}, {"measurement": "Collagen HillSlope (best-fit value)", "setting": "[1]; log(inhibitor) vs. response, variable slope (four parameters)", "value": -2.337}, {"measurement": "Collagen LogIC50 (best-fit value)", "setting": "[1]; [5]", "value": 1.73}, {"measurement": "Relative (CC50)/(collagen IC50)", "setting": "[1]; relative to HF, Fig 5E", "value": 1.63}, {"measurement": "CC50 at 72 h", "setting": "[2]", "value": 0.294, "unit": "µM"}, {"measurement": "activity at 0.0001 µM", "setting": "[3]; WI26VA4, read-out: CellTiter-Glo % of control, 0.1 nM, Experiment #1, replicates", "value": 101, "unit": "%"}, {"measurement": "activity at 0.0001 µM", "setting": "[3]; WI26VA4, read-out: CellTiter-Glo % of control, 0.1 nM, Experiment #2, replicates", "value": 95.4, "unit": "%"}, {"measurement": "activity at 0.0003 µM", "setting": "[3]; WI26VA4, read-out: CellTiter-Glo % of control, 0.3 nM, Experiment #1, replicates", "value": 110, "unit": "%"}, {"measurement": "activity at 0.0003 µM", "setting": "[3]; WI26VA4, read-out: CellTiter-Glo % of control, 0.3 nM, Experiment #2, replicates", "value": 103, "unit": "%"}, {"measurement": "activity at 0.001 µM", "setting": "[3]; WI26VA4, read-out: CellTiter-Glo % of control, 1 nM, Experiment #1, replicates", "value": 106, "unit": "%"}, {"measurement": "activity at 0.001 µM", "setting": "[3]; WI26VA4, read-out: CellTiter-Glo % of control, 1 nM, Experiment #2, replicates", "value": 93.8, "unit": "%"}, {"measurement": "activity at 0.003 µM", "setting": "[3]; WI26VA4, read-out: CellTiter-Glo % of control, 3 nM, Experiment #1, replicates", "value": 100, "unit": "%"}, {"measurement": "activity at 0.01 µM", "setting": "[3]; WI26VA4, read-out: CellTiter-Glo % of control, 10 nM, Experiment #1, replicates", "value": 104, "unit": "%"}, {"measurement": "activity at 0.03 µM", "setting": "[3]; WI26VA4, read-out: CellTiter-Glo % of control, 30 nM, Experiment #1, replicates", "value": 94.7, "unit": "%"}, {"measurement": "activity at 0.1 µM", "setting": "[3]; WI26VA4, read-out: CellTiter-Glo % of control, 100 nM, Experiment #1, replicates", "value": 72.9, "unit": "%"}, {"measurement": "activity at 0.3 µM", "setting": "[3]; WI26VA4, read-out: CellTiter-Glo % of control, 300 nM, Experiment #1, replicates", "value": 56.9, "unit": "%"}, {"measurement": "activity at 1 µM", "setting": "[3]; WI26VA4, read-out: CellTiter-Glo % of control, 1000 nM, Experiment #1, replicates", "value": 24.9, "unit": "%"}, {"measurement": "activity at 1 µM", "setting": "[3]; WI26VA4, read-out: CellTiter-Glo % of control, 1000 nM, Experiment #2, replicates", "value": 12.4, "unit": "%"}, {"measurement": "activity at 3 µM", "setting": "[3]; WI26VA4, read-out: CellTiter-Glo % of control, 3000 nM, Experiment #1, replicates", "value": 39.6, "unit": "%"}, {"measurement": "activity at 3 µM", "setting": "[3]; WI26VA4, read-out: CellTiter-Glo % of control, 3000 nM, Experiment #2, replicates", "value": 30.3, "unit": "%"}, {"measurement": "activity at 10 µM", "setting": "[3]; WI26VA4, read-out: CellTiter-Glo % of control, 10000 nM, Experiment #1, replicates", "value": 14.4, "unit": "%"}, {"measurement": "activity at 10 µM", "setting": "[3]; WI26VA4, read-out: CellTiter-Glo % of control, 10000 nM, Experiment #2, replicates", "value": 8.9, "unit": "%"}, {"measurement": "activity at 30 µM", "setting": "[3]; WI26VA4, read-out: CellTiter-Glo % of control, 30000 nM, Experiment #1, replicates", "value": 6.42, "unit": "%"}, {"measurement": "activity at 30 µM", "setting": "[3]; WI26VA4, read-out: CellTiter-Glo % of control, 30000 nM, Experiment #2, replicates", "value": 4.58, "unit": "%"}, {"measurement": "activity at 100 µM", "setting": "[3]; WI26VA4, read-out: CellTiter-Glo % of control, 100000 nM, Experiment #1, replicates", "value": 2.45, "unit": "%"}, {"measurement": "activity at 100 µM", "setting": "[3]; WI26VA4, read-out: CellTiter-Glo % of control, 100000 nM, Experiment #2, replicates", "value": 1.52, "unit": "%"}, {"measurement": "activity at 0.0001 µM", "setting": "[3]; WI26VA4, read-out: CellTiter-Glo % of control, average, 0.1 nM, average", "value": 102, "unit": "%"}, {"measurement": "activity at 0.0003 µM", "setting": "[3]; WI26VA4, read-out: CellTiter-Glo % of control, average, 0.3 nM, average", "value": 105, "unit": "%"}, {"measurement": "activity at 0.001 µM", "setting": "[3]; WI26VA4, read-out: CellTiter-Glo % of control, average, 1 nM, average", "value": 96.9, "unit": "%"}, {"measurement": "activity at 0.003 µM", "setting": "[3]; WI26VA4, read-out: CellTiter-Glo % of control, average, 3 nM, average", "value": 82.5, "unit": "%"}, {"measurement": "activity at 0.01 µM", "setting": "[3]; WI26VA4, read-out: CellTiter-Glo % of control, average, 10 nM, average", "value": 91.2, "unit": "%"}, {"measurement": "activity at 0.03 µM", "setting": "[3]; WI26VA4, read-out: CellTiter-Glo % of control, average, 30 nM, average", "value": 86.4, "unit": "%"}, {"measurement": "activity at 0.1 µM", "setting": "[3]; WI26VA4, read-out: CellTiter-Glo % of control, average, 100 nM, average", "value": 66.3, "unit": "%"}, {"measurement": "activity at 0.3 µM", "setting": "[3]; WI26VA4, read-out: CellTiter-Glo % of control, average, 300 nM, average", "value": 51.8, "unit": "%"}, {"measurement": "activity at 1 µM", "setting": "[3]; WI26VA4, read-out: CellTiter-Glo % of control, average, 1000 nM, average", "value": 20.8, "unit": "%"}, {"measurement": "activity at 3 µM", "setting": "[3]; WI26VA4, read-out: CellTiter-Glo % of control, average, 3000 nM, average", "value": 32.6, "unit": "%"}, {"measurement": "activity at 10 µM", "setting": "[3]; WI26VA4, read-out: CellTiter-Glo % of control, average, 10000 nM, average", "value": 11.2, "unit": "%"}, {"measurement": "activity at 30 µM", "setting": "[3]; WI26VA4, read-out: CellTiter-Glo % of control, average, 30000 nM, average", "value": 5.72, "unit": "%"}, {"measurement": "activity at 100 µM", "setting": "[3]; WI26VA4, read-out: CellTiter-Glo % of control, average, 100000 nM, average", "value": 1.91, "unit": "%"}, {"measurement": "CellTiter-Glo LogIC50 (best-fit value)", "setting": "[3]; [5]", "value": 2.468}, {"measurement": "TNT-luciferase % of control", "setting": "[4]; 6 nM, Experiment #1, replicates, 0.006 µM", "value": "103.28 % of control and 100.82 % of control and 110.66 % of control"}, {"measurement": "TNT-luciferase % of control", "setting": "[4]; 6 nM, Experiment #2, replicates, 0.006 µM", "value": "86.60 % of control and 91.24 % of control and 93.56 % of control"}, {"measurement": "TNT-luciferase % of control", "setting": "[4]; 6 nM, Experiment #3, replicates, 0.006 µM", "value": "100.46 % of control and 97.13 % of control and 93.79 % of control"}, {"measurement": "TNT-luciferase % of control, average", "setting": "[4]; 6 nM, average", "value": "97.50 % of control"}, {"measurement": "TNT-luciferase % of control", "setting": "[4]; 20 nM, Experiment #1, replicates, 0.02 µM", "value": "108.20 % of control and 109.84 % of control (2×)"}]}]}
